Laboratory results from patent publication US11059808B2, “Substituted phenylpyrrolecarboxamides with therapeutic activity in HIV” (New York Blood Center, Inc., priority 2014, dated 2021).
Read-outs that look alike come from different tables or passages of the source.

Experiments:
[1] = system: TZM-bl cells; experiment: Cytotoxicity in TZM-bl cells (XTT); format: cell-based; conditions: for CC50: XTT, 3 days
Method: (§1) The cytotoxicity of test compounds in TZM-bl cells was also measured by the XTT method described previously^7. […] The soluble intracellular formazan was quantitated colorimetrically at 450 nm 4 h later. The percent of cytotoxicity and the CC50 values were calculated as above. (See Table 4)

[2] = system: panel of HIV-1 ENV-pseudoviruses (subtype A, A/D, A2/D, A/E, A/G, B, C and D); experiment: microbe, parasite or virus in culture; format: cell-based
[3] = molecular target: T1, HIV-1 Integrase (Human immunodeficiency virus type 1 group M subtype B, UniProt P04585); experiment: HIV-1 Integrase Assay (ExpressBio kit); format: biochemical
T1 construct: HIV-1 Integrase Assay Kit from ExpressBio; purchased ExpressBio (Thurnmont, Md.)
Method: HIV-1 Integrase was performed as per the protocol in the HIV-1 Integrase Assay Kit from ExpressBio (Thurnmont, Md.). (See Table 3)

[4] = system: MT-2 cells; experiment: Cytotoxicity in MT-2 cells (XTT); format: cell-based; conditions: 4 days
Method: Cytotoxicity of test compounds in MT-2 cells was measured a by colorimetric method using XTT [(sodium 3′-(1-(phenylamino)-carbonyl)-3,4-tetrazolium-bis(4-methoxy-6-nitro) bezenesulfonic acid hydrate)] (PolySciences) as previously described^7. Briefly, 100 μl of a test compound at graded concentrations was added to an equal volume of cells (1×10^5 cells/ml) in 96 well plates followed by incubation at 37° C. for 4 days, which ran parallel to the neutralization assay in MT-2. Following the addition of XTT the soluble intracellular formazan was quantitated colorimetrically at 450 nm 4 h later. […] (See Table 4)

[5] = system: PBMC; experiment: Cytotoxicity in PBMC (XTT); format: cell-based; conditions: 7 days
Method: For the PBMC toxicity assay we used 5×10^5 cells/ml and the cytotoxicity of the compounds was measured after 7 days of incubation as previously reported^8. Following the addition of XTT the soluble intracellular formazan was quantitated colorimetrically at 450 nm 4 h later. The percent of cytotoxicity and the CC50 values were calculated as above. (See Table 4)

[6] = system: lab-adapted and primary HIV-1 isolates; experiment: Multi-cycle infection assay in PBMC (p24 ELISA)
Method: PBMCs were isolated from the blood of healthy donors at the New York Blood Center by standard density gradient centrifugation using Histopaque-1077 (Sigma-Aldrich). The cells were cultured at 37° C. for 2 hr. […] The PHA-stimulated cells (5×10^4 cells/well) were infected with lab-adapted and primary HIV-1 isolates at 500 TCID50 (0.01 MOI) in the absence or presence of inhibitors at graded concentrations. Culture media were replaced every 3 days with fresh media. The supernatants were collected 7 days post-infection and tested for p24 antigen by ELISA. The percent inhibition of p24 production and IC50 values were calculated by the GraphPad Prism software.

[7] = system: laboratory-adapted HIV-1 strains; experiment: Multi-cycle infection assay in MT-2 cells (p24 ELISA); conditions: read-out: IC50 (μm)
Method: The inhibitory activity of test compounds on infection by laboratory-adapted HIV-1 strains was determined as previously described^6. Briefly, 1×10^4 MT-2 cells were infected with HIV-1IIIB and other lab-adapted HIV-1 at 100 TCID50 (0.01 MOI) in the presence or absence of test compounds at graded concentrations overnight. The culture supernatants were then removed and fresh media were added. On the fourth day post-infection, 100 μl of culture supernatants were collected from each well, mixed with equal volume of 5% Triton X-100 and tested for p24 antigen by “sandwich” ELISA.

[8] = system: HIV-1 pseudovirus pseudotyped with HXB2 Env; experiment: microbe, parasite or virus in culture; format: cell-based; conditions: single cycle assay, TZM-bl cells infected with HIV-1 pseudovirus pseudotyped with HXB2 Env;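 also: endpoint is IC50 for inhibition of pseudovirus infection of TZM-bl cells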
[9] = Cytotoxicity in TZM-bl cells (XTT); format: cell-based; conditions: human, XTT, 3 days
Method: as §1

[10] = system: cell-to-cell fusion mediated by HIV-1 (HIV-1HXB2 Env); format: cell-based; conditions: Cell-Cell fusion Assay
Method: To assess the ability of NBD-compounds to block cell-to-cell fusion mediated by HIV-1 we performed cell fusion assay as previously described 3^1-3 with some modifications. […] Following fusion of the two cell lines Tat induce the expression of β-gal enzyme. […] The percent inhibition and the IC50 values were calculated using the GraphPad Prism software.

[11] = read-out: IC50 (μm), laboratory strain BaL, subtype B, co-receptor R5
[12] = read-out: IC50 (μm), laboratory strain SF162, subtype B, co-receptor R5
[13] = read-out: IC50 (μm), primary isolate 92US657, subtype B, co-receptor R5
[14] = read-out: IC50 (μm), primary isolate 93MW959, subtype C, co-receptor R5
[15] = read-out: IC50 (μm), primary isolate RU570, subtype G, co-receptor R5
[16] = RT-resistant isolate AZT-R, subtype B, MT-2, co-receptor X4
[17] = fusion resistant isolate pNL4-3 gp41(36G) V38E, N42S, subtype B, MT-2, co-receptor X4
[18] = laboratory strain MN, subtype B, MT-2, co-receptor X4
[19] = laboratory strain SF2, subtype B, MT-2, co-receptor R5X4
[20] = protease resistant isolate HIV-1RF/L-323-12-3, subtype B, MT-2, co-receptor X4
[21] = Human immunodeficiency virus 1, HXB2, TZM-bl
[22] = Human immunodeficiency virus 1, TZM-bl, read-out: IC50 (μM) ± S.D., subtype A2/D, NIH # 11905, ENV QG393.60M.ENV.A1

Work on `Cc1ccc(-c2ccc(C(=O)NC(CN)c3ncc(CO)s3)[nH]2)cc1F` (single isomer, unassigned) [Compound 99] yielded a CC50 [1] of 38.8 ± 0.8 µM, an IC50 ([2]; Human immunodeficiency virus 1, TZM-bl, read-out: IC50 (μM) ± S.D., subtype A, ENV KNH1144) of 1.1 ± 0.2 µM and an IC50 ([2]; subtype A, ENV BG505-T332N, read-out: IC50 (μM) ± S.D.) of 0.99 ± 0.1 µM.

For `NCC(NC(=O)c1ccc(-c2ccc(Cl)c(F)c2)[nH]1)c1ncc(CO)s1` (single isomer, unassigned) [Compound 90], the CC50 [1] was 37.4 ± 0.3 µM and the IC50 [3] was > 100 µM.

With `Cc1nc(C(NC(=O)C(=O)Nc2ccc(Cl)cc2)C2CCCCN2)sc1CO` (centres unmarked) [NBD-09027] the CC50 [4] was > 108 µM, the CC50 [5] was > 160 µM and the IC50 [6, 11] was 35.8 ± 1.2 µM. The IC50 [6, 12] was 12.7 ± 0.7 µM, the IC50 [6, 13] was 8.6 ± 0.9 µM and the IC50 ([6]; read-out: IC50 (μm), primary isolate 93IN101, subtype C, co-receptor R5) was > 87 µM. The IC50 [6, 14] was > 43.5 µM, the IC50 ([6]; read-out: IC50 (μm), primary isolate BCF02, (Group 0), co-receptor R5) was ~87 µM and the IC50 [6, 15] was 8.5 ± 0.8 µM. The IC50 [7, 16] was 4.4 ± 1.1 µM, the IC50 [7, 17] was 5.8 ± 0.3 µM and the IC50 ([7]; laboratory strain IIIB, subtype B, MT-2, co-receptor X4) was 4.7 ± 0.6 µM. The IC50 [7, 18] was 4 µM, the IC50 [7, 19] was 5.7 ± 0.9 µM and the IC50 [7, 20] was 14.7 ± 2.3 µM.

For `Cc1nc(C(CN)NC(=O)c2ccc(-c3ccc(F)c(F)c3)[nH]2)sc1CO` (single isomer, unassigned) [Compound 121], the IC50 [8, 21] was 3.4 ± 0.7 µM, the CC50 at 3 days [9] was > 51 µM and the “percentage in brackets after CC50 >51” value ([1]; printed "(30%)" without explanation, presumably toxicity at 51 μM) was 30%.

For `NCC(NC(=O)c1ccc(-c2cc(F)c(Cl)c(F)c2)[nH]1)c1ncc(CO)s1` (single isomer, unassigned) [Compound 120], the CC50 [1] was 31.4 ± 1.1 µM and the IC50 [2, 22] was 1 ± 0.06 µM.

With `COc1ccnc2[nH]cc(C(=O)C(=O)N3CCN(C(=O)c4ccccc4)C[C@H]3C)c12` [BMS-378806] the IC50 [10] was 0.014 µM.

Compound `Cc1ccc(-c2ccc(C(=O)NC(CN(C)C)c3nc(C)c(CO)s3)[nH]2)cc1F` (single isomer, unassigned) [Compound 64] has an IC50 [8] of ~40 µM and a CC50 at 3 days [9] of ~40 µM.

In the case of `Cc1nc(C(NC(=O)c2ccc(-c3ccc(Cl)cc3)[nH]2)C2CCCCN2)sc1CO` (single isomer, unassigned) [Compound 17], the IC50 [2, 22] is reported as 0.41 ± 0.2 µM and the IC50 [3] is reported as > 100 µM.

With `CNCCC(NC(=O)c1ccc(-c2ccc(Cl)cc2)[nH]1)c1nc(C)c(CO)s1` (single isomer, unassigned) [Compound 82] the IC50 [8] was 18.6 ± 1.5 µM and the CC50 at 3 days [9] was 23 ± 1.2 µM.

With `Cc1nc(C(CN)NC(=O)c2ccc(-c3ccc(Cl)c(F)c3)[nH]2)sc1CO` (single isomer, unassigned) [Compound 41] the CC50 [1] was ≥ 33 µM, the IC50 ([2]; Human immunodeficiency virus 1, TZM-bl, read-out: IC50 (μM) ± S.D., subtype C, NIH # 11312, ENV ZM249M.PL1) was 1 µM and the IC50 [3] was > 100 µM.

With `NCC(NC(=O)c1ccc(-c2ccc(Cl)cc2)[nH]1)c1ncc(CO)s1` (single isomer, unassigned) [Compound 104] the IC50 [8] was 1.3 ± 0.1 µM and the CC50 at 3 days [9] was 38 ± 1.5 µM.

Compound `COc1cc(C(=O)NC(CN)c2nc(C)c(CO)s2)[nH]c1-c1ccc(Cl)cc1` (single isomer, unassigned) [Compound 105] has an IC50 [8, 21] of 8.8 ± 0.5 µM and a CC50 at 3 days [9] of 16.7 ± 0.1 µM.

Compound `CC(C)(N)C(NC(=O)c1ccc(-c2ccc(Cl)c(F)c2)[nH]1)c1ncc(CO)s1` (single isomer, unassigned) [Compound 123] has an IC50 [8, 21] of 0.56 ± 0.03 µM and a CC50 at 3 days [9] of 14.5 ± 2 µM.

With `Cc1ccc(-c2ccc(C(=O)NC(CCN)c3nc(C)c(CO)s3)[nH]2)cc1F` (single isomer, unassigned) [Compound 84] the IC50 [8] was 18.2 ± 2.6 µM and the CC50 at 3 days [9] was 47 ± 0.6 µM.

`CNCCC(NC(=O)c1ccc(-c2ccc(C)c(F)c2)[nH]1)c1nc(C)c(CO)s1` (single isomer, unassigned) [Compound 78] gave an IC50 [8] of 10.4 ± 0.2 µM and a CC50 at 3 days [9] of 36.4 ± 2.6 µM.

`CNCCC(NC(=O)c1ccc(-c2ccc(Cl)c(F)c2)[nH]1)c1nc(C)c(CO)s1` (single isomer, unassigned) [Compound 80] gave an IC50 [8] of 9.1 ± 1.1 µM and a CC50 at 3 days [9] of 22.3 ± 0.6 µM.

In the case of NBD-556, the IC50 [3] is reported as > 200 µM, the CC50 [4] is reported as > 280 µM and the CC50 [5] is reported as > 280 µM. For the same compound, the IC50 ([6]; read-out: IC50 (μm), laboratory strain 89.6, subtype B, co-receptor R5X4) was 4.8 ± 1 µM, the IC50 [6, 11] was ≥ 118 µM and the IC50 [6, 12] was 48.9 ± 7.3 µM. The IC50 [6, 13] was 48 ± 1.65 µM, the IC50 [6, 14] was 57.2 ± 8.7 µM and the IC50 ([6]; read-out: IC50 (μm), primary isolate 93TH060, subtype E, co-receptor R5) was > 45 µM. It also gave an IC50 [6, 15] of 19.5 ± 2.3 µM, an IC50 [7, 16] of 58 ± 14.3 µM and an IC50 [7, 17] of 11 µM. For the same compound, the IC50 [7, 18] was 15.9 ± 1.6 µM, the IC50 ([7]; laboratory strain RF, subtype B, MT-2, co-receptor R5X4) was 18.7 ± 1.3 µM and the IC50 [7, 19] was ≥ 118 µM. For the same compound, the IC50 [7, 20] was > 59 µM.

For `Cc1nc(C(CCN)NC(=O)c2ccc(-c3ccc(Cl)cc3)[nH]2)sc1CO` (single isomer, unassigned) [Compound 88], the IC50 [8] was 18.7 ± 0.7 µM and the CC50 at 3 days [9] was 41 ± 1.1 µM.
